Legend:
Experiment in all cases: relative viability (nuclei count vs DMSO), 5 days (fraction); higher = more cells survive
[1] = compound: COc1cc2nccc(Oc3ccc(NC(=O)C4(C(=O)Nc5ccc(F)cc5)CC4)cc3)c2cc1OC [Cabozantinib] + Cc1cc(Nc2cc(N3CCN(C)CC3)nc(Sc3ccc(NC(=O)C4CC4)cc3)n2)n[nH]1 [Tozasertib] (partner 0.1 µM)
In short: (§1)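 After 5 days of treatment, lung cancer cells in 1536-well plates were fixed and stained in a single step (final 0.05% Triton X-100, 1% formaldehyde, 1 ug/ml Hoechst) and their nuclei counted on 4× images. Treatment had been applied by pin tool the day after seeding as one drug alone or as a fixed anchor-drug dose with five library-drug doses (not always all listed) in √10 steps. Relative viability is the nuclei count of treated wells divided by that of vehicle wells, and values are medians of duplicate plates.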

Zosuquidar + Alpelisib = compound: O[C@@H](COc1cccc2ncccc12)CN1CCN([C@@H]2c3ccccc3[C@@H]3[C@H](c4ccccc42)C3(F)F)CC1 [Zosuquidar] + Cc1nc(NC(=O)N2CCC[C@H]2C(N)=O)sc1-c1ccnc(C(C)(C)C(F)(F)F)c1 [Alpelisib] (partner 2 µM)
In short: as §1

Zosuquidar + Palbociclib = compound: O[C@@H](COc1cccc2ncccc12)CN1CCN([C@@H]2c3ccccc3[C@@H]3[C@H](c4ccccc42)C3(F)F)CC1 [Zosuquidar] + CC(=O)c1c(C)c2cnc(Nc3ccc(N4CCNCC4)cn3)nc2n(C2CCCC2)c1=O [Palbociclib] (partner 0.5 µM)
In short: as §1

Zosuquidar + Decitabine = compound: O[C@@H](COc1cccc2ncccc12)CN1CCN([C@@H]2c3ccccc3[C@@H]3[C@H](c4ccccc42)C3(F)F)CC1 [Zosuquidar] + Nc1ncn([C@H]2C[C@H](O)[C@@H](CO)O2)c(=O)n1 [Decitabine] (partner 2 µM)
In short: as §1

Cell Line	relative viability ([1]; first compound 0.02 µM)	relative viability ([1]; first compound 0.06325 µM)	relative viability ([1]; first compound 0.2 µM)	relative viability ([1]; first compound 0.6325 µM)	relative viability ([1]; first compound 2 µM)	relative viability (Zosuquidar + Alpelisib; first compound 0.01 µM)	relative viability (Zosuquidar + Alpelisib; first compound 0.03162 µM)	relative viability (Zosuquidar + Alpelisib; first compound 0.1 µM)	relative viability (Zosuquidar + Alpelisib; first compound 0.3162 µM)	relative viability (Zosuquidar + Alpelisib; first compound 1 µM)	relative viability (Zosuquidar + Palbociclib; first compound 0.01 µM)	relative viability (Zosuquidar + Palbociclib; first compound 0.03162 µM)	relative viability (Zosuquidar + Palbociclib; first compound 0.1 µM)	relative viability (Zosuquidar + Palbociclib; first compound 0.3162 µM)	relative viability (Zosuquidar + Palbociclib; first compound 1 µM)	relative viability (Zosuquidar + Decitabine; first compound 0.01 µM)	relative viability (Zosuquidar + Decitabine; first compound 0.03162 µM)	relative viability (Zosuquidar + Decitabine; first compound 0.1 µM)	relative viability (Zosuquidar + Decitabine; first compound 0.3162 µM)	relative viability (Zosuquidar + Decitabine; first compound 1 µM)
NCI-H2228	0.342	0.306	0.296	0.29	0.196	0.562	0.716	0.881	0.679	0.859	0.804	0.821	0.76	0.865	0.613	–	–	–	–	–
NCI-H2342	0.656	0.516	0.553	0.478	0.401	–	–	–	–	–	0.531	0.528	0.519	0.502	0.553	0.703	0.801	0.721	0.738	0.717
NCI-H1792	–	–	–	–	–	0.66	0.813	0.53	0.705	0.799	0.665	0.583	–	0.673	0.703	0.545	0.532	0.603	0.584	0.556
NCI-H1563	–	–	–	–	–	0.935	0.988	0.904	0.988	0.921	–	–	–	–	–	–	–	–	–	–
NCI-H1650	0.384	0.612	0.356	0.34	0.244	–	–	–	–	–	0.373	0.31	0.365	0.351	0.337	0.451	0.439	0.553	0.398	0.378
NCI-H522	0.612	0.535	0.502	0.614	0.511	–	–	–	–	–	1.14	0.869	1.01	1.09	0.908	0.681	0.624	0.643	0.618	0.657
SW 900	0.551	0.481	0.814	0.464	0.299	–	–	–	–	–	0.568	0.558	–	0.665	0.596	0.478	0.466	–	0.394	0.421
CAL-12T	0.366	0.446	0.369	0.261	0.247	1.17	1.13	1.16	1.41	1.13	0.381	0.62	0.412	0.593	0.462	–	–	–	–	–
EBC-1	–	–	–	–	–	0.83	0.842	0.794	1.09	0.779	–	–	–	–	–	–	–	–	–	–
IA-LM	–	–	–	–	–	0.818	0.908	0.714	0.909	0.773	–	–	–	–	–	–	–	–	–	–
NCI-H596	0.95	0.8	0.924	0.905	0.767	0.467	0.512	0.502	0.589	0.591	–	–	–	–	–	1.02	0.961	1.03	1.13	0.879
